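Growth conditions: 96-well plates. Treatment: test compound, 48 hours, 5 concentrations. Analysis: linear interpolation between bracketing concentrations; unreached endpoints set to highest concentration. TGI: total growth inhibition.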
Assays:
Assay in all cases: NCI tumour cell line growth inhibition, 48 h
[1] = test system: NCI-H522 lung
[2] = test system: LOX IMVI melanoma
[3] = test system: A498 renal
[4] = test system: SNB-19 CNS
[5] = test system: MALME-3M melanoma
[6] = test system: BT-549 breast
[7] = test system: SF-295 CNS
[8] = test system: HCC-2998 colon
[9] = test system: NCI/ADR-RES ovarian
[10] = test system: UACC-257 melanoma
[11] = test system: TK-10 renal
[12] = test system: OVCAR-5 ovarian
[13] = test system: SK-MEL-5 melanoma
[14] = test system: HCT-116 colon
[15] = test system: IGROV1 ovarian
[16] = test system: SN12C renal
[17] = test system: EKVX NSCLC
[18] = test system: MDA-MB-231 breast
[19] = test system: KM12 colon
[20] = test system: SNB-75 CNS

COc1cccc(-c2nc3ccccc3c(=O)[nH]2)c1
TGI [1]: 60.8 µM
TGI [2]: > 100 µM
TGI [3]: 51.6 µM
TGI [4]: 46.7 µM
TGI [5]: 52.5 µM
TGI [6]: 61.8 µM
TGI [7]: 88.9 µM
TGI [8]: 54.3 µM
TGI [9]: 51.8 µM
TGI [10]: 56.2 µM
TGI [11]: 36.9 µM
TGI [12]: > 100 µM
TGI [13]: 65.8 µM
TGI [14]: 60.1 µM
TGI [15]: 58.8 µM
TGI [16]: 82.2 µM
TGI [17]: 87.7 µM
TGI [18]: 58.9 µM
TGI [19]: 86.9 µM

CC(C)=C1C(=O)C[C@]2(C)C[C@H]3O[C@]3(C)CC[C@@H]3O[C@@]3(C)CC[C@@H]12
TGI [1]: > 50 µM
TGI [2]: > 50 µM
TGI [3]: > 50 µM
TGI [4]: > 50 µM
TGI [6]: > 50 µM
TGI [7]: > 50 µM
TGI [8]: > 50 µM
TGI [9]: > 50 µM
TGI [10]: > 50 µM
TGI [11]: > 50 µM
TGI [12]: > 50 µM
TGI [14]: > 50 µM
TGI [20]: > 50 µM
TGI [15]: > 50 µM
TGI [16]: > 50 µM
TGI [17]: > 50 µM
TGI [18]: > 50 µM
TGI [19]: > 50 µM

COc1ccc(NC(=S)Nc2cc(C)cc(C)n2)cc1
TGI [1]: > 100 µM
TGI [2]: > 100 µM
TGI [3]: > 100 µM
TGI [4]: > 100 µM
TGI [5]: > 100 µM
TGI [6]: > 100 µM
TGI [7]: > 100 µM
TGI [9]: > 100 µM
TGI [10]: > 100 µM
TGI [11]: > 100 µM
TGI [12]: > 100 µM
TGI [13]: > 100 µM
TGI [14]: > 100 µM
TGI [20]: > 100 µM
TGI [15]: > 100 µM
TGI [16]: > 100 µM
TGI [17]: > 100 µM
TGI [18]: > 100 µM
TGI [19]: > 100 µM

COc1cc(NC(C)c2ccc3c(c2)OCCO3)cc(OC)c1OC (stereo not drawn)
TGI [1]: 48.9 µM
TGI [2]: > 100 µM
TGI [3]: > 100 µM
TGI [4]: > 100 µM
TGI [5]: 67.8 µM
TGI [6]: > 100 µM
TGI [7]: > 100 µM
TGI [8]: > 100 µM
TGI [9]: 91.4 µM
TGI [10]: > 100 µM
TGI [11]: > 100 µM
TGI [12]: > 100 µM
TGI [13]: 76.3 µM
TGI [14]: > 100 µM
TGI [15]: > 100 µM
TGI [16]: > 100 µM
TGI [17]: > 100 µM
TGI [18]: > 100 µM
TGI [19]: > 100 µM

O=C1NC(N/N=C/C(O)C(O)C(O)C(O)CO)=N/C1=C\c1ccco1 (stereo not drawn)
TGI [1]: > 100 µM
TGI [2]: > 100 µM
TGI [3]: > 100 µM
TGI [4]: > 100 µM
TGI [5]: > 100 µM
TGI [6]: > 100 µM
TGI [7]: > 100 µM
TGI [9]: > 100 µM
TGI [10]: > 100 µM
TGI [11]: > 100 µM
TGI [12]: > 100 µM
TGI [13]: > 100 µM
TGI [14]: > 100 µM
TGI [20]: > 100 µM
TGI [15]: > 100 µM
TGI [16]: > 100 µM
TGI [17]: > 100 µM
TGI [18]: > 100 µM
TGI [19]: > 100 µM

CC1OC(OC2C(OC(=O)[C@]34CCC(C)(C)C[C@H]3C3=CC[C@@H]5[C@@]6(C)CC[C@H](OC7OC(C(=O)O)C(O)C(O)C7O)C(C)(C)[C@@H]6CC[C@@]5(C)[C@]3(C)C[C@H]4O)OCC(O)C2O)C(O)C(O)C1OC1OCC(OC2OCC(O)C(O)C2O)C(O)C1O (stereo partly drawn)
TGI [1]: 16.5 µM
TGI [2]: 24.2 µM
TGI [3]: 3.06 µM
TGI [4]: 18.4 µM
TGI [5]: 25.3 µM
TGI [6]: 13 µM
TGI [7]: 22.2 µM
TGI [8]: 3.03 µM
TGI [9]: 25.1 µM
TGI [10]: 23 µM
TGI [12]: 20.1 µM
TGI [13]: 27.2 µM
TGI [14]: 16.6 µM
TGI [20]: 26.1 µM
TGI [15]: 26.5 µM
TGI [16]: 5.68 µM
TGI [17]: 15.2 µM
TGI [18]: 11.9 µM
TGI [19]: 14 µM

O=C(OCc1ccccc1)N(CCCCN(CCCNC(=O)C(F)(F)F)C(=O)OCc1ccccc1)CCCNC(=O)C(F)(F)F
TGI [1]: > 100 µM
TGI [2]: > 100 µM
TGI [3]: > 100 µM
TGI [4]: > 100 µM
TGI [6]: > 100 µM
TGI [7]: > 100 µM
TGI [8]: > 100 µM
TGI [9]: > 100 µM
TGI [10]: > 100 µM
TGI [11]: > 100 µM
TGI [12]: > 100 µM
TGI [13]: > 100 µM
TGI [14]: > 100 µM
TGI [20]: > 100 µM
TGI [15]: > 100 µM
TGI [16]: > 100 µM
TGI [17]: > 100 µM
TGI [18]: > 100 µM
TGI [19]: > 100 µM

NC(=O)C(=CNC(N)=S)C(N)=O
TGI [1]: > 100 µM
TGI [2]: > 100 µM
TGI [3]: > 100 µM
TGI [4]: > 100 µM
TGI [5]: > 100 µM
TGI [6]: > 100 µM
TGI [7]: > 100 µM
TGI [8]: > 100 µM
TGI [9]: > 100 µM
TGI [10]: > 100 µM
TGI [12]: > 100 µM
TGI [13]: > 100 µM
TGI [14]: > 100 µM
TGI [20]: > 100 µM
TGI [15]: > 100 µM
TGI [16]: > 100 µM
TGI [17]: > 100 µM
TGI [18]: > 100 µM
TGI [19]: > 100 µM

Cc1ccc(Nc2nc(=O)c3c4ccccc4n(C(=O)OC(C)(C)C)c3s2)cc1
TGI [1]: 59.3 µM
TGI [2]: 46.7 µM
TGI [3]: > 100 µM
TGI [4]: > 100 µM
TGI [5]: 66.3 µM
TGI [6]: 56.5 µM
TGI [7]: 65.6 µM
TGI [9]: 32.5 µM
TGI [10]: > 100 µM
TGI [11]: 99.9 µM
TGI [12]: 48.3 µM
TGI [13]: 27 µM
TGI [20]: > 100 µM
TGI [15]: > 100 µM
TGI [17]: > 100 µM
TGI [18]: > 100 µM
TGI [19]: 54.5 µM

Source: PubChem BioAssay (NCI)
